Patent US20240173419A1, “CDK2 DEGRADERS AND USES THEREOF” (Kymera Therapeutics, Inc., priority 2022, published 2024)
Values belong to the molecule of their own block, whether it stands above or below them.

Target: T1, CDK2 (Homo sapiens, UniProt P24941)
T1 construct: endogenous in cells; host or cells: MKN1 cells
Experiment: CDK2 degradation in MKN1 cells (AlphaLISA)
Type: cell-based
Settings: 14 h incubation; for DC50: read-out: CDK2 degradation 14 h: Mean external-Abs DC50
Procedure, shortened: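 MKN1 cells (2e4/well) treated 14 h at 37° C with 11-point 1:5 dilutions (0.001 nM-10 μM, 0.1% DMSO). CDK2 in lysates quantified by AlphaLISA, no-cell background subtracted; DC50 from four-parameter logistic fit.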

SMILES: Cc1cc(S(=O)(=O)NC2CCN(CC3CCN(c4ccc(C5CCC(=O)NC5=O)cc4F)CC3)CC2F)ccc1Nc1ncc(C(F)(F)F)c(N2CCCC(C)(O)C2)n1 (stereo not drawn) [I-1054]
CDK2 degradation 14 h: Average Dmax %: A (A (>75% o))
DC50: < 100 nM

SMILES: Cc1cc(S(=O)(=O)NC2CCN(CC3CCN(c4ccc(C5CCC(=O)NC5=O)cc4F)CC3)CC2F)ccc1Nc1ncc(C(F)(F)F)c(N2CCCC(C)(O)C2)n1 (stereo not drawn) [I-1055]
CDK2 degradation 14 h: Average Dmax %: A (A (>75% o))
DC50: < 100 nM

SMILES: CC1(O)CCCN(c2nc(Nc3ccc(S(=O)(=O)NC4CCN(CC5CCN(c6ccc(C7CCC(=O)NC7=O)c(F)c6)CC5)CC45CC5)cc3F)ncc2C(F)(F)F)C1 (stereo not drawn) [I-1056]
CDK2 degradation 14 h: Average Dmax %: A (A (>75% o))
DC50: < 100 nM

SMILES: CC1(O)CCCN(c2nc(Nc3ccc(S(=O)(=O)NC4CC5CCC(C4)N5CC4CCN(c5ccc(C6CCC(=O)NC6=O)c(F)c5)CC4)cc3F)ncc2C(F)(F)F)C1 (stereo not drawn) [I-1057]
CDK2 degradation 14 h: Average Dmax %: B (B (>50% -75%))
DC50: 100 to 500 nM

SMILES: CC1CC(NS(=O)(=O)c2ccc(Nc3ncc(C(F)(F)F)c(N4CCCC(C)(O)C4)n3)c(F)c2)CCN1CC1CCN(c2ccc(C3CCC(=O)NC3=O)c(F)c2)CC1 (stereo not drawn) [I-1059]
CDK2 degradation 14 h: Average Dmax %: A (A (>75% o))
DC50: < 100 nM

SMILES: CC1CC(NS(=O)(=O)c2ccc(Nc3ncc(C(F)(F)F)c(N4CCCC(C)(O)C4)n3)c(F)c2)CCN1CC1CCN(c2ccc(C3CCC(=O)NC3=O)c(F)c2)CC1 (stereo not drawn) [I-1060]
CDK2 degradation 14 h: Average Dmax %: A (A (>75% o))
DC50: < 100 nM

SMILES: CC1CN(CC2CCN(c3ccc(C4CCC(=O)NC4=O)c(F)c3)CC2)CCC1NS(=O)(=O)c1ccc(Nc2ncc(C(F)(F)F)c(N3CCCC(C)(O)C3)n2)c(F)c1 (stereo not drawn) [I-1061]
CDK2 degradation 14 h: Average Dmax %: A (A (>75% o))
DC50: < 100 nM

SMILES: CC1CN(CC2CCN(c3ccc(C4CCC(=O)NC4=O)c(F)c3)CC2)CCC1NS(=O)(=O)c1ccc(Nc2ncc(C(F)(F)F)c(N3CCCC(C)(O)C3)n2)c(F)c1 (stereo not drawn) [I-1062]
CDK2 degradation 14 h: Average Dmax %: A (A (>75% o))
DC50: < 100 nM

SMILES: CC1CN(CC2CCN(c3ccc(C4CCC(=O)NC4=O)c(F)c3)CC2)CCC1NS(=O)(=O)c1ccc(Nc2ncc(C(F)(F)F)c(N3CCCC(C)(O)C3)n2)c(F)c1 (stereo not drawn) [I-1063]
CDK2 degradation 14 h: Average Dmax %: A (A (>75% o))
DC50: < 100 nM

SMILES: CC1(O)CCCN(c2nc(Nc3ccc(S(=O)(=O)NC4CCC5(CC4)CN(CC4CCN(c6ccc(C7CCC(=O)NC7=O)c(F)c6)CC4)C5)cc3F)ncc2C(F)(F)F)C1 (stereo not drawn) [I-1064]
CDK2 degradation 14 h: Average Dmax %: A (A (>75% o))
DC50: < 100 nM

SMILES: Cc1nn(C2CCC(=O)NC2=O)c2ccc(N3CCN(CC4CCC(NS(=O)(=O)c5ccc(Nc6ncc(C(F)(F)F)c(N7CCCC(C)(O)C7)n6)c(F)c5)CC4)CC3)cc12 (stereo not drawn) [I-1065]
CDK2 degradation 14 h: Average Dmax %: A (A (>75% o))
DC50: < 100 nM

SMILES: Cc1cc(S(=O)(=O)NC2CCC(CN3CCN(c4ccc(C5CCC(=O)NC5=O)c(F)c4)CC3)CC2)ncc1Nc1ncc(C(F)(F)F)c(N2CCCC(C)(O)C2)n1 (stereo not drawn) [I-1066]
CDK2 degradation 14 h: Average Dmax %: A (A (>75% o))
DC50: < 100 nM

SMILES: CC(C1CCN(c2ccc(C3CCC(=O)NC3=O)c(F)c2)CC1)N1CCC(NS(=O)(=O)c2ccc(Nc3ncc(C(F)(F)F)c(N4CCCC(C)(O)C4)n3)c(F)c2)C(F)C1 (stereo not drawn) [I-1067]
CDK2 degradation 14 h: Average Dmax %: A (A (>75% o))
DC50: < 100 nM

SMILES: CC1(O)CCCN(c2nc(Nc3ccc(S(=O)(=O)NC4CCN(CC5(C)CCN(c6ccc(C7CCC(=O)NC7=O)cc6F)CC5)CC4F)cc3F)ncc2C(F)(F)F)C1 (stereo not drawn) [I-1068]
CDK2 degradation 14 h: Average Dmax %: A (A (>75% o))
DC50: 100 to 500 nM

SMILES: CC1(O)CCCN(c2nc(Nc3ccc(S(=O)(=O)NC4CCN(CC5(C)CCN(c6ccc(C7CCC(=O)NC7=O)c(F)c6)CC5)CC4F)cc3F)ncc2C(F)(F)F)C1 (stereo not drawn) [I-1069]
CDK2 degradation 14 h: Average Dmax %: A (A (>75% o))
DC50: < 100 nM

SMILES: COCc1cc(S(=O)(=O)NC2CCC(CN3CCN(c4ccc(C5CCC(=O)NC5=O)c(F)c4)CC3)CC2)ccc1Nc1ncc(C(F)(F)F)c(N2CCCC(C)(O)C2)n1 (stereo not drawn) [I-1070]
CDK2 degradation 14 h: Average Dmax %: A (A (>75% o))
DC50: < 100 nM

SMILES: Cc1cc(S(=O)(=O)NC2CCC(CN3CCN(c4ccc(C5CCC(=O)NC5=O)c(F)c4)CC3)CC2)ccc1Nc1ncc(C(F)(F)F)c(N2CCCC(C)(O)C2)n1 (stereo not drawn) [I-1072]
DC50: < 100 nM

SMILES: [2H]C([2H])([2H])c1cc(S(=O)(=O)NC2CCC(CN3CCN(c4ccc(C5CCC(=O)NC5=O)c(F)c4)CC3)CC2)ccc1Nc1ncc(C(F)(F)F)c(N2CCCC(C)(O)C2)n1 (stereo not drawn) [I-1072]
CDK2 degradation 14 h: Average Dmax %: A (A (>75% o))

SMILES: CC1(O)CCCN(c2nc(Nc3ccc(S(=O)(=O)NC4CC(CCN5CCN(c6ccc(C7CCC(=O)NC7=O)c(F)c6)CC5)C4)cc3C(F)F)ncc2C(F)(F)F)C1 (stereo not drawn) [I-1073]
CDK2 degradation 14 h: Average Dmax %: B (B (>50% -75%))
DC50: < 100 nM

Other lines, results leading:

CDK2 degradation 14 h: Average Dmax %: A (A (>75% o))
DC50: 100 to 500 nM
SMILES: CC1(O)CCC(c2nc(Nc3ccc(S(=O)(=O)NC4CCC(CN5CCN(c6ccc(C7CCC(=O)NC7=O)c(F)c6)CC5)CC4)cc3F)ncc2C(F)(F)F)CC1 (stereo not drawn) [I-1074]

CDK2 degradation 14 h: Average Dmax %: B (B (>50% -75%))
DC50: 100 to 500 nM
SMILES: CC1(O)CCCN(c2nc(Nc3ccc(S(=O)(=O)NC4CCC(CCN5CCN(c6ccc(C7CCC(=O)NC7=O)c(F)c6)CC5)CC4)cc3C(F)F)ncc2C(F)(F)F)C1 (stereo not drawn) [I-1076]

CDK2 degradation 14 h: Average Dmax %: A (A (>75% o))
DC50: < 100 nM
SMILES: Cc1cc(S(=O)(=O)NC2CCC(CN3CCN(c4ccc(C5CCC(=O)NC5=O)c(F)c4)CC3)CC2)c(F)cc1Nc1ncc(C(F)(F)F)c(N2CCCC(C)(O)C2)n1 (stereo not drawn) [I-1096]

CDK2 degradation 14 h: Average Dmax %: A (A (>75% o))
DC50: < 100 nM
SMILES: Cc1cc(S(=O)(=O)NC2CCC(CN3CCN(c4ccc(C5CCC(=O)NC5=O)c(F)c4)CC3)CC2)cc(F)c1Nc1ncc(C(F)(F)F)c(N2CCCC(C)(O)C2)n1 (stereo not drawn) [I-1097]

CDK2 degradation 14 h: Average Dmax %: A (A (>75% o))
DC50: < 100 nM
SMILES: CC1(O)CCCN(c2nc(Nc3ccc(S(=O)(=O)NC4CCC(CN5CCN(c6ccc(C7CCC(=O)NC7=O)cc6)CC5)CC4)cc3Cl)ncc2C(F)(F)F)C1 (stereo not drawn) [I-1100]

CDK2 degradation 14 h: Average Dmax %: B (B (>50% -75%))
DC50: 100 to 500 nM
SMILES: CC1(O)CCCN(c2nc(Nc3ccc(S(=O)(=O)NC4CCC(CN5CCN(c6ccc(C7CCC(=O)NC7=O)cc6)CC5)CC4)cc3C(F)(F)F)ncc2C(F)(F)F)C1 (stereo not drawn) [I-1101]

CDK2 degradation 14 h: Average Dmax %: A (A (>75% o))
DC50: < 100 nM
SMILES: CC1(O)CCCN(c2nc(Nc3ccc(S(=O)(=O)NC4CCC(CN5CCN(c6ccc(C7CCC(=O)NC7=O)cc6)CC5)CC4)cc3C(F)F)ncc2C(F)(F)F)C1 (stereo not drawn) [I-1102]

CDK2 degradation 14 h: Average Dmax %: C (C (>25% -50%))
DC50: > 1000 nM
SMILES: CC1(O)CCCN(c2nc(Nc3ccc(S(=O)(=O)NC4CCC(CN5CCN(c6ccc(C7CCC(=O)NC7=O)c(Cl)c6)CC5)CC4)cc3C(F)(F)F)ncc2C(F)(F)F)C1 (stereo not drawn) [I-1103]

CDK2 degradation 14 h: Average Dmax %: A (A (>75% o))
DC50: < 100 nM
SMILES: CC1(O)CCCN(c2nc(Nc3ccc(S(=O)(=O)NC4CCC(CN5CCN(c6ccc(C7CCC(=O)NC7=O)c(Cl)c6)CC5)CC4)cc3C(F)F)ncc2C(F)(F)F)C1 (stereo not drawn) [I-1104]

CDK2 degradation 14 h: Average Dmax %: A (A (>75% o))
DC50: < 100 nM
SMILES: Cc1c(Nc2ncc(C(F)(F)F)c(N3CCCC(C)(O)C3)n2)ccc(S(=O)(=O)NC2CCC(CN3CCN(c4ccc(C5CCC(=O)NC5=O)c(F)c4)CC3)CC2)c1F (stereo not drawn) [I-1105]

CDK2 degradation 14 h: Average Dmax %: A (A (>75% o))
DC50: < 100 nM
SMILES: CC1(O)CCCN(c2nc(Nc3ccc(S(=O)(=O)NC4CCC(CN5CCN(c6ccc(C7CCC(=O)NC7=O)c(Cl)c6)CC5)CC4)cc3F)ncc2C(F)(F)F)C1 (stereo not drawn) [I-1107]

CDK2 degradation 14 h: Average Dmax %: B (B (>50% -75%))
DC50: 100 to 500 nM
SMILES: CC1(O)CCCN(c2nc(Nc3ccc(S(=O)(=O)NC4CCC(CN5CCN(c6ccc(C7CCC(=O)NC7=O)cc6F)CC5)CC4)cc3C(F)(F)F)ncc2C(F)(F)F)C1 (stereo not drawn) [I-1110]

CDK2 degradation 14 h: Average Dmax %: A (A (>75% o))
DC50: 100 to 500 nM
SMILES: CC1(O)CCCN(c2nc(Nc3ccc(S(=O)(=O)NC4CCC(CN5CCN(c6ccc(C7CCC(=O)NC7=O)cc6F)CC5)CC4)cc3OC(F)F)ncc2C(F)(F)F)C1 (stereo not drawn) [I-1111]

CDK2 degradation 14 h: Average Dmax %: A (A (>75% o))
DC50: < 100 nM
SMILES: CC1(O)CCCN(c2nc(Nc3ccc(S(=O)(=O)NC4CCC(CN5CCN(c6ccc(C7CCC(=O)NC7=O)cc6F)CC5)CC4)cc3Cl)ncc2C(F)(F)F)C1 (stereo not drawn) [I-1112]

CDK2 degradation 14 h: Average Dmax %: A (A (>75% o))
DC50: < 100 nM
SMILES: CC1(O)CCCN(c2nc(Nc3ccc(S(=O)(=O)NC4CCC(CN5CCN(c6ccc(C7CCC(=O)NC7=O)cc6F)CC5)CC4)cc3C(F)F)ncc2C(F)(F)F)C1 (stereo not drawn) [I-1113]

CDK2 degradation 14 h: Average Dmax %: B (B (>50% -75%))
DC50: 100 to 500 nM
SMILES: CC1(O)CCCN(c2nc(Nc3ccc(S(=O)(=O)NC4CCC(CN5CCN(c6ccc(C7CCC(=O)NC7=O)c(F)c6)CC5)CC4)cc3C(F)(F)F)ncc2C(F)(F)F)C1 (stereo not drawn) [I-1114]

CDK2 degradation 14 h: Average Dmax %: A (A (>75% o))
DC50: 100 to 500 nM
SMILES: CC1(O)CCCN(c2nc(Nc3ccc(S(=O)(=O)NC4CCC(CN5CCN(c6ccc(C7CCC(=O)NC7=O)c(F)c6)CC5)CC4)cc3OC(F)F)ncc2C(F)(F)F)C1 (stereo not drawn) [I-1115]

CDK2 degradation 14 h: Average Dmax %: A (A (>75% o))
DC50: < 100 nM
SMILES: CC1(O)CCCN(c2nc(Nc3ccc(S(=O)(=O)NC4CCC(CN5CCN(c6ccc(C7CCC(=O)NC7=O)c(F)c6)CC5)CC4)cc3F)ncc2C(F)(F)F)C1 (stereo not drawn) [I-1117]

CDK2 degradation 14 h: Average Dmax %: A (A (>75% o))
DC50: < 100 nM
SMILES: Cc1cc(S(=O)(=O)NC2CCC(CN3CCN(c4cccc(NC5CCC(=O)NC5=O)c4)CC3)CC2)ccc1Nc1ncc(C(F)(F)F)c(N2CCCC(C)(O)C2)n1 (stereo not drawn) [I-1118]

CDK2 degradation 14 h: Average Dmax %: A (A (>75% o))
DC50: < 100 nM
SMILES: Cc1cc(S(=O)(=O)NC2CCC(CN3CCN(c4cc(NC5CCC(=O)NC5=O)ccc4F)CC3)CC2)ccc1Nc1ncc(C(F)(F)F)c(N2CCCC(C)(O)C2)n1 (stereo not drawn) [I-1120]

CDK2 degradation 14 h: Average Dmax %: A (A (>75% o))
DC50: < 100 nM
SMILES: Cc1cc(S(=O)(=O)NC2CCC(CN3CCN(c4cc(F)cc(NC5CCC(=O)NC5=O)c4)CC3)CC2)ccc1Nc1ncc(C(F)(F)F)c(N2CCCC(C)(O)C2)n1 (stereo not drawn) [I-1122]
